SMILES strings stand for the structures.

Holding throughout (experiment): Kinase selectivity, DiscoverX scanMAX Kinase assay panel (% control)
Type in all cases: binding

In test [1] the target is T1, kinases of the scanMAX Kinase assay panel (Homo sapiens, UniProt Q13464).
T1 construct: purchased DiscoverX Co. (contract measurement) scanMAX Kinase assay panel
Conditions: kinase ROCK1; 1 uM in DMSO. Here is the method: (§1) The following experiment was performed to evaluate the activity of the compounds of the present invention to inhibit many enzymes.
(§2) Particularly, the compounds of Examples 8, 64 and 104 were selected among all of those compounds of the invention. DiscoverX Co. was asked to measure the enzyme (kinase) selectivity, and the experiment was performed using scanMAX™ Kinase assay panel.
(§3) Wherein, the concentration of the drug treated to each enzyme was 1 uM in DMSO and the control percentage (% control) was determined by the following Equation 1. (example compound−positive control)/(negative control−positive control)×100 [Equation 1]
(§4) Herein, the positive control indicates the compound showing the % control of 0%, and the negative control indicates DMSO showing the % control of 100%. The enzyme selectivity in the present invention is defined as follows: When the % control for each enzyme is less than 35% (<35%), it is judged that the compound has the activity to the corresponding enzyme.

The target of test [2] is T2, kinases of the scanMAX Kinase assay panel (Homo sapiens, UniProt O60285).
T2 construct: purchased DiscoverX Co. (contract measurement) scanMAX Kinase assay panel
T2 sequence (O60285 1-661): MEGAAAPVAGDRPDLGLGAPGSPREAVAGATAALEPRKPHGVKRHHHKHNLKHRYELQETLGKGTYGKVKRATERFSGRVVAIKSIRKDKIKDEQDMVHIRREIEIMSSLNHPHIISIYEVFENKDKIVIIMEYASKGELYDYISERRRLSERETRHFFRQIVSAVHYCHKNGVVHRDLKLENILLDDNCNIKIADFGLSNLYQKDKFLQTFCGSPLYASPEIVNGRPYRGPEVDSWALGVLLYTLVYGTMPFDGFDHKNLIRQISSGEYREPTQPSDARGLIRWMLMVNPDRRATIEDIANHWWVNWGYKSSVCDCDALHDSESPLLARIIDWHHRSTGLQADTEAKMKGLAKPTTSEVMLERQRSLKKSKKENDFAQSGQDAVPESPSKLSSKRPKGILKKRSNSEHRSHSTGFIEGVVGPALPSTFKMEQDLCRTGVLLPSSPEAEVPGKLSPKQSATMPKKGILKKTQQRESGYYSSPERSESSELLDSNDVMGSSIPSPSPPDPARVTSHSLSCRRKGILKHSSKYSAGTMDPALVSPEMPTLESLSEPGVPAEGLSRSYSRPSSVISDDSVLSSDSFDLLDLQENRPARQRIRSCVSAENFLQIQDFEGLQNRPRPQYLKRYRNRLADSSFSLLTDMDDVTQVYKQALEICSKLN
Conditions: ARK5; 1 uM. Here is the method: as §1, §2, §3, §4

Test [3] deals with T3, kinases of the scanMAX Kinase assay panel (Homo sapiens, UniProt O15111).
T3 construct: purchased DiscoverX Co. (contract measurement) scanMAX Kinase assay panel
T3 sequence (O15111 1-745): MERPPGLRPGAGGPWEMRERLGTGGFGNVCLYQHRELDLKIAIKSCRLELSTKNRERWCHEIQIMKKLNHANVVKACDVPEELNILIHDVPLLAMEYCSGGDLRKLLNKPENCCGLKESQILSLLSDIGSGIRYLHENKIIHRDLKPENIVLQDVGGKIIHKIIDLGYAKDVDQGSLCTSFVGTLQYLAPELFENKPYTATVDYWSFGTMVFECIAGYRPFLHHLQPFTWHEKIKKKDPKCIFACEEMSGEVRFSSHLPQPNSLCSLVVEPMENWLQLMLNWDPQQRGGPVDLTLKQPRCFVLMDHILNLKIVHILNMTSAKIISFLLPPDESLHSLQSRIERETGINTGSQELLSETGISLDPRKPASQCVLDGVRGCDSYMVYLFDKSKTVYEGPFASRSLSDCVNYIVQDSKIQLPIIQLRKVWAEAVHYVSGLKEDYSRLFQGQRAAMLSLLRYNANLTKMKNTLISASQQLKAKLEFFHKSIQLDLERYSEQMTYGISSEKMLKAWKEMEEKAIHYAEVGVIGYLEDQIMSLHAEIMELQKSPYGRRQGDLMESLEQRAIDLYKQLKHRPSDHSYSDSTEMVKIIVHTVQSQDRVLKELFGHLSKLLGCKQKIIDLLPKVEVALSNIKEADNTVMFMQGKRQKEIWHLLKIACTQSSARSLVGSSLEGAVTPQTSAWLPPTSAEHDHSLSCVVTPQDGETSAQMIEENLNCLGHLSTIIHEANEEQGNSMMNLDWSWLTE
To be noted: IKK-alpha; 1 uM. As for the experimental part: as §1, §2, §3, §4

The target of test [4] is T4, kinases of the scanMAX Kinase assay panel (Homo sapiens, UniProt Q92918).
T4 construct: purchased DiscoverX Co. (contract measurement) scanMAX Kinase assay panel
T4 sequence (Q92918 whole entry): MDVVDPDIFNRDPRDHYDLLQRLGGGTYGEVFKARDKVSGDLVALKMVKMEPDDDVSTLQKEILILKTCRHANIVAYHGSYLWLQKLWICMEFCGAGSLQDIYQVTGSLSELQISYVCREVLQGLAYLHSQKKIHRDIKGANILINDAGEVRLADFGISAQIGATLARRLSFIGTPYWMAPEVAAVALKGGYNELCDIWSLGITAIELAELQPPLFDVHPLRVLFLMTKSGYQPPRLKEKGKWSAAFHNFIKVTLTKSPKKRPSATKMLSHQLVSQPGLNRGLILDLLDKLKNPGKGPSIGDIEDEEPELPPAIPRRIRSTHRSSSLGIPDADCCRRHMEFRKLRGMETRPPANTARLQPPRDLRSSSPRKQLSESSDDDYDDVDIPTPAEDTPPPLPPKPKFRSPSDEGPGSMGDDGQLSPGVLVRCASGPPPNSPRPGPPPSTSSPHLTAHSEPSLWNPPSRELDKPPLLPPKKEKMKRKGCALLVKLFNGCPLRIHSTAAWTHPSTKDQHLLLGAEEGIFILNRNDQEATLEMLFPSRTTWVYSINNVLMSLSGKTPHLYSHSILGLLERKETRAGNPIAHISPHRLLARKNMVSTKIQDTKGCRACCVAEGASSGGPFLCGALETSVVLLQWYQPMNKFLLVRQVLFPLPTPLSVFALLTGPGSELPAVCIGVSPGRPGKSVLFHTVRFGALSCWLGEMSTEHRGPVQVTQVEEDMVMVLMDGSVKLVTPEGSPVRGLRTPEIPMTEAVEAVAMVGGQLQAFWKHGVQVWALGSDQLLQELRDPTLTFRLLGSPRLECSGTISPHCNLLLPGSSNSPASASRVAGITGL
Conditions: HPK1; 1 uM. Here is the method: as §1, §2, §3, §4

In test [5] the target is T5, kinases of the scanMAX Kinase assay panel (Homo sapiens, UniProt Q13554).
T5 construct: purchased DiscoverX Co. (contract measurement) scanMAX Kinase assay panel
T5 sequence (Q13554 whole entry): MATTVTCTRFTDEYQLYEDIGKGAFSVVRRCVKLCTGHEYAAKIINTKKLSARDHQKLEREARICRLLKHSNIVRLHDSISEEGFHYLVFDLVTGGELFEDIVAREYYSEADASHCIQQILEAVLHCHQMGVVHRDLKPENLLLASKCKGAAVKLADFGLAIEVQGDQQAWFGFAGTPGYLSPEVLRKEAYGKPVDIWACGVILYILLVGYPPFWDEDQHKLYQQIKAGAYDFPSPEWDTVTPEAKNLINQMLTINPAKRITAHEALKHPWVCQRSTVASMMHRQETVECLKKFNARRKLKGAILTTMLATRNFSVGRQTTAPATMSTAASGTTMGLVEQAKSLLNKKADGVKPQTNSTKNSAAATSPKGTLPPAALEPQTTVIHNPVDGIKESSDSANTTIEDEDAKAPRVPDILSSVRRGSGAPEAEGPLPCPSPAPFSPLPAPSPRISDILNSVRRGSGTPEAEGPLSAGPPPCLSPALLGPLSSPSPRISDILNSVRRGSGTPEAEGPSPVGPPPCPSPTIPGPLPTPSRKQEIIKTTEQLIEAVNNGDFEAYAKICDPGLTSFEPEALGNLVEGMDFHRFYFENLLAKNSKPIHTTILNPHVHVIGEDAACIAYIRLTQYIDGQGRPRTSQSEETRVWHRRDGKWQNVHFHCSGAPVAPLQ
Conditions: CAMK2B; 1 uM. Here is the method:
as §1, §2, §3, §4

In test [6] the target is T6, kinases of the scanMAX Kinase assay panel (Homo sapiens, UniProt Q9NYL2).
T6 construct: purchased DiscoverX Co. (contract measurement) scanMAX Kinase assay panel
T6 sequence (Q9NYL2 whole entry): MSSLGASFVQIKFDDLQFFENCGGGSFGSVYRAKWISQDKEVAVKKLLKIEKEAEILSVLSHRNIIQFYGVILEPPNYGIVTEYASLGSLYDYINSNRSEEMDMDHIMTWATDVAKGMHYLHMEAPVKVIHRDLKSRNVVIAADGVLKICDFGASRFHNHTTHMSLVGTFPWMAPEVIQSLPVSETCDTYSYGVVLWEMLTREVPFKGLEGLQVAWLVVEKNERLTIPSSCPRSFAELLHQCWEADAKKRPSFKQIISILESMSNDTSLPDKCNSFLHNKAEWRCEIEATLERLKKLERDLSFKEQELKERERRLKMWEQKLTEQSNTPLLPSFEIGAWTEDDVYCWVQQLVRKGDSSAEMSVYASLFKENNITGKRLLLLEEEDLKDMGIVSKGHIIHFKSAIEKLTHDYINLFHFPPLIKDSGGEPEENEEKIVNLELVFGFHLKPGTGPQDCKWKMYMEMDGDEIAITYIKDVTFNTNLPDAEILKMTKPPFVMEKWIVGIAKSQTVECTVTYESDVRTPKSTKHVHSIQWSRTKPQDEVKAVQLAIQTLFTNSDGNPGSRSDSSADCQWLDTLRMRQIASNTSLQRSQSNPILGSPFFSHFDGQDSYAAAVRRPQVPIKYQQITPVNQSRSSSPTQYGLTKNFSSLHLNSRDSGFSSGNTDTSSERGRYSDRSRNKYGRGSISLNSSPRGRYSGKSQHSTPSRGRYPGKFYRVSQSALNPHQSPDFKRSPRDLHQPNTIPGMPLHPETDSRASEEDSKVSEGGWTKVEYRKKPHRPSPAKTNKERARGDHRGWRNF
To be noted: kinase ZAK; 1 uM in DMSO. Here is the method:
as §1, §2, §3, §4

Test [7] addresses T7, kinases of the scanMAX Kinase assay panel (Homo sapiens, UniProt P27448).
T7 construct: purchased DiscoverX Co. (contract measurement) scanMAX Kinase assay panel
Conditions: MARK3; 1 uM. As for the experimental part: as §1, §2, §3, §4

Test [8] addresses T8, kinases of the scanMAX Kinase assay panel (Homo sapiens, UniProt Q9HCP0).
T8 construct: purchased DiscoverX Co. (contract measurement) scanMAX Kinase assay panel
Conditions: CSNK1G1; 1 uM. As for the experimental part:
as §1, §2, §3, §4

In test [9] the target is T9, kinases of the scanMAX Kinase assay panel (Homo sapiens, UniProt O00141).
T9 construct: purchased DiscoverX Co. (contract measurement) scanMAX Kinase assay panel
T9 sequence (O00141 1-431): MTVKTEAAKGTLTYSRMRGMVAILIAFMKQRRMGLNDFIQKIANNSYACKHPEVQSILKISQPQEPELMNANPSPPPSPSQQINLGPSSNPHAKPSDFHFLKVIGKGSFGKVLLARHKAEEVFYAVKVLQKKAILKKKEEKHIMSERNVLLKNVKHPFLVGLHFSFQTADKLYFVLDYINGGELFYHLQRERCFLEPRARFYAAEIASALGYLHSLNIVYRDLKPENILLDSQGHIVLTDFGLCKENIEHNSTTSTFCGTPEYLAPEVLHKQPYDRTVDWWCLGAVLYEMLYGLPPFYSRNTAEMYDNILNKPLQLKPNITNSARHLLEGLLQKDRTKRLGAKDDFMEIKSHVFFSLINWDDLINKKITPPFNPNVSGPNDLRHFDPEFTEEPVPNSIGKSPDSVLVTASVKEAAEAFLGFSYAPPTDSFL
Conditions: kinase SGK; 1 uM in DMSO. Here is the method:
as §1, §2, §3, §4

For test [10], the target named is T10, kinases of the scanMAX Kinase assay panel (Homo sapiens, UniProt P45984).
T10 construct: purchased DiscoverX Co. (contract measurement) scanMAX Kinase assay panel
T10 sequence (P45984 whole entry): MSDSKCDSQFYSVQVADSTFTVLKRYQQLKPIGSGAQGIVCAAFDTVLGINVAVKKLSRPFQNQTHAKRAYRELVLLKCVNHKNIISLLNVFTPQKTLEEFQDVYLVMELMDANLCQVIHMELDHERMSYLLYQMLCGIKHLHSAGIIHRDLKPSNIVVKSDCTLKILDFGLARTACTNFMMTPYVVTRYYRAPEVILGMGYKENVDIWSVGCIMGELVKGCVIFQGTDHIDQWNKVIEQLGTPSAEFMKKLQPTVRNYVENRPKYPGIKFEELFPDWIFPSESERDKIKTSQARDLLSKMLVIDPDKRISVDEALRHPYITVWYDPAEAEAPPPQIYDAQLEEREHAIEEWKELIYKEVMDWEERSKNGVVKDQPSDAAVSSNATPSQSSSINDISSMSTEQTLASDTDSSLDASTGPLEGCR
To be noted: JNK2; 1 uM. As for the experimental part: as §1, §2, §3, §4

Test [11] has as its target T11, kinases of the scanMAX Kinase assay panel (Homo sapiens, UniProt P00519, T315I).
T11 construct: purchased DiscoverX Co. (contract measurement) scanMAX Kinase assay panel
Conditions: 1 uM. As for the experimental part: as §1, §2, §3, §4

T8 sequence (Q9HCP0 whole entry): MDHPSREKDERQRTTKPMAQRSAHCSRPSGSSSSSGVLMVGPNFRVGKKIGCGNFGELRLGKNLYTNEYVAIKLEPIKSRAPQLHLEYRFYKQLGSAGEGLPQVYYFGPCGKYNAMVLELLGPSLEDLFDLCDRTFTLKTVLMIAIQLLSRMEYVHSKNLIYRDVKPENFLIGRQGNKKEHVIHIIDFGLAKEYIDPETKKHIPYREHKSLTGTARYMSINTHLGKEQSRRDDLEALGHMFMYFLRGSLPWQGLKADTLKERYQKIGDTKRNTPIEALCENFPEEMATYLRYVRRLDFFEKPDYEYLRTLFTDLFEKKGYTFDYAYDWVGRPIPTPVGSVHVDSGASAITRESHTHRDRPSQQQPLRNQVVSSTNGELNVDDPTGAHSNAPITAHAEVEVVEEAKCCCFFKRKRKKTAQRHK
T7 sequence (P27448 whole entry): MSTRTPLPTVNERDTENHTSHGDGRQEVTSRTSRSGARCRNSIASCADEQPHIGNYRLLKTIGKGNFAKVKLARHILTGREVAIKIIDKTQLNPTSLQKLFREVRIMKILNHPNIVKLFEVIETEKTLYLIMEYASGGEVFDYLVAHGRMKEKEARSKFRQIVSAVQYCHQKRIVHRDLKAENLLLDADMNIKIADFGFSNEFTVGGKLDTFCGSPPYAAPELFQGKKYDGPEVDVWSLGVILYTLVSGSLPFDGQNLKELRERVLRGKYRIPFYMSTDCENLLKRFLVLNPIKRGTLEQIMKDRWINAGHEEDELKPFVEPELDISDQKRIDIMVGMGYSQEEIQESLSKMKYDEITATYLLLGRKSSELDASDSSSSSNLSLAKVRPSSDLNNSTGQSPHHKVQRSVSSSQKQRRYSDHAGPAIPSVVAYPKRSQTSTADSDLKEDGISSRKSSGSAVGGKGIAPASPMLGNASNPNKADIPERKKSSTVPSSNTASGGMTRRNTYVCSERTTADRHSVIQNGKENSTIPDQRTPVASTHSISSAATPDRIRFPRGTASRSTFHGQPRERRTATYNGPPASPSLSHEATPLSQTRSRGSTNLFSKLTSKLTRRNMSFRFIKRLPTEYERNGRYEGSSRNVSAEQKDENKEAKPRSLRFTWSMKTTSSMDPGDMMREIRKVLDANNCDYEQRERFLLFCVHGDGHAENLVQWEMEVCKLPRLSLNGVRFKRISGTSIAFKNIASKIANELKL

In the case of `CC1(Nc2nc(Nc3cnn([C@H]4CCN(C5COC5)C[C@@H]4F)c3Cl)nc3[nH]cc(C#N)c23)CC1` [Example 52, 2-((5-chloro-1-((3S,4S)-3-fluoro-1-(oxetane-3-yl)piperidine-4-yl)-1H-pyrazole-4-yl)amino)((1-methylcyclopropyl)amino)-7H-pyrrolo[2,3-d]pyrimidine-5-carbonitrile], the remaining binding at 1 µM in test [1] was 28%; in test [2], 2.5%; in [3] it was 3.4%; in test [4], 4.3%; in [5], 57%; in [6], 88%. The remaining binding at 1 µM stood at 29% in test [7]; 6.4% in test [8]; 18% in test [9]; 0% in test [10]; 0% in test [11] (ABL1(T315I)-nonphosphorylated); 0.05% in test [11] (ABL1(T315I)-phosphorylated).

`CCNc1nc(Nc2ccc(C(=O)N3CCC(N4CCOCC4)CC3)cc2OC)nc2[nH]cc(C(F)(F)F)c12` [Example 104, (4-((4-(ethylamino)-5-(trifluoromethyl)-7H-pyrrolo[2,3-d]pyrimidine-2-yl)amino)-3-methoxyphenyl)(4-morpholinopiperidine-1-yl)methanone]: the remaining binding at 1 µM in [1] is 100%; in test [2] it was 99%; in test [3] it was 93%; in [4], 100%; in test [5] it was 81%; in [6], 100%. Moreover, the remaining binding at 1 µM amounted to 86% in test [7]; 73% in [8]; 100% in test [9]; 23% in test [10]; 100% in [11] (ABL1(T315I)-nonphosphorylated); 98% in test [11] (ABL1(T315I)-phosphorylated).

Consider `CNc1nc(Nc2ccc(C(=O)N3CCOCC3)cc2OC)nc2[nH]cc(C#N)c12` [Example 1, 2-((2-methoxy-4-(morpholine-4-carbonyl)phenyl)amino)-4-(methylamino)-7H-pyrrolo[2,3-d]pyrimidine-5-carbonitrile], for which the remaining binding at 1 µM worked out at 64% in [1]; 88% in test [2]; 57% in test [3]; 79% in test [4]; 62% in test [5]; 100% in test [6]. Further, the remaining binding at 1 µM in test [7] stood at 100%; in [8] it was 95%; in test [9] it was 48%; in test [10], 0.1%; in test [11] (ABL1(T315I)-nonphosphorylated), 83%; in test [11] (ABL1(T315I)-phosphorylated), 59%.

These data come from US11208412B2 (DAEGU-GYEONGBUK MEDICAL INNOVATION FOUNDATION, priority 2017, dated 2021).
